Experimental data taken from the supplement of paper PMC10307832.

Legend:
Experiment in all cases: relative viability (nuclei count vs DMSO), 5 days (fraction); higher = more cells survive
Pemetrexed + Pictilisib = compound: Nc1nc2[nH]cc(CCc3ccc(C(=O)N[C@@H](CCC(=O)O)C(=O)O)cc3)c2c(=O)[nH]1 [Pemetrexed] + CS(=O)(=O)N1CCN(Cc2cc3nc(-c4cccc5[nH]ncc45)nc(N4CCOCC4)c3s2)CC1 [Pictilisib] (partner 1 µM)
Outline: (§1)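 After 5 days of treatment, lung cancer cells in 1536-well plates were fixed and stained in a single step (final 0.05% Triton X-100, 1% formaldehyde, 1 ug/ml Hoechst) and their nuclei counted on 4× images. Treatment had been applied by pin tool the day after seeding as one drug alone or as a fixed anchor-drug dose with five library-drug doses (not always all listed) in √10 steps. Relative viability is the nuclei count of treated wells divided by that of vehicle wells, and values are medians of duplicate plates.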

Idelalisib + AZD7762 = compound: CC[C@H](Nc1ncnc2[nH]cnc12)c1nc2cccc(F)c2c(=O)n1-c1ccccc1 [Idelalisib] + NC(=O)Nc1cc(-c2cccc(F)c2)sc1C(=O)N[C@H]1CCCNC1 [AZD7762] (partner 0.2 µM)
Outline: as §1

Pemetrexed + Navitoclax = compound: Nc1nc2[nH]cc(CCc3ccc(C(=O)N[C@@H](CCC(=O)O)C(=O)O)cc3)c2c(=O)[nH]1 [Pemetrexed] + CC1(C)CCC(c2ccc(Cl)cc2)=C(CN2CCN(c3ccc(C(=O)NS(=O)(=O)c4ccc(N[C@H](CCN5CCOCC5)CSc5ccccc5)c(S(=O)(=O)C(F)(F)F)c4)cc3)CC2)C1 [Navitoclax] (partner 0.5 µM)
Outline: as §1

Idelalisib + Alpelisib = compound: CC[C@H](Nc1ncnc2[nH]cnc12)c1nc2cccc(F)c2c(=O)n1-c1ccccc1 [Idelalisib] + Cc1nc(NC(=O)N2CCC[C@H]2C(N)=O)sc1-c1ccnc(C(C)(C)C(F)(F)F)c1 [Alpelisib] (partner 2 µM)
Outline: as §1

| Cell Line | relative viability (Pemetrexed + Pictilisib; first compound 0.002 µM) | relative viability (Pemetrexed + Pictilisib; first compound 0.006325 µM) | relative viability (Pemetrexed + Pictilisib; first compound 0.02 µM) | relative viability (Pemetrexed + Pictilisib; first compound 0.06325 µM) | relative viability (Pemetrexed + Pictilisib; first compound 0.2 µM) | relative viability (Idelalisib + AZD7762; first compound 0.04 µM) | relative viability (Idelalisib + AZD7762; first compound 0.1265 µM) | relative viability (Idelalisib + AZD7762; first compound 0.4 µM) | relative viability (Idelalisib + AZD7762; first compound 1.265 µM) | relative viability (Idelalisib + AZD7762; first compound 4 µM) | relative viability (Pemetrexed + Navitoclax; first compound 0.002 µM) | relative viability (Pemetrexed + Navitoclax; first compound 0.006325 µM) | relative viability (Pemetrexed + Navitoclax; first compound 0.02 µM) | relative viability (Pemetrexed + Navitoclax; first compound 0.06325 µM) | relative viability (Pemetrexed + Navitoclax; first compound 0.2 µM) | relative viability (Idelalisib + Alpelisib; first compound 0.04 µM) | relative viability (Idelalisib + Alpelisib; first compound 0.1265 µM) | relative viability (Idelalisib + Alpelisib; first compound 0.4 µM) | relative viability (Idelalisib + Alpelisib; first compound 1.265 µM) | relative viability (Idelalisib + Alpelisib; first compound 4 µM) |
| --- | --- | --- | --- | --- | --- | --- | --- | --- | --- | --- | --- | --- | --- | --- | --- | --- | --- | --- | --- | --- |
| NCI-H1395 | 0.824 | 0.58 | 0.679 | 0.54 | 0.574 | 0.415 | 0.45 | 0.417 | 0.371 | 0.422 | 1.06 | 1.14 | 1.24 | 1.11 | 1.11 | 1.17 | 0.987 | 0.974 | 1.15 | 0.694 |
| NCI-H2085 | 0.503 | 0.425 | 0.506 | 0.548 | 0.507 | 0.951 | 0.979 | 0.887 | 0.436 | 0.471 | 1.05 | 1.18 | 1.07 | 1.12 | 1.15 | 1.01 | 0.955 | 0.811 | 0.874 | 0.514 |
| NCI-H2087 | 0.692 | 0.79 | 0.938 | 0.67 | 0.581 | 1.34 | 1.33 | 1.32 | 1.19 | 1.32 | 0.946 | 0.951 | 0.951 | 0.749 | 0.746 | 1.03 | 1.19 | 1.11 | 1.09 | 0.651 |
| NCI-H322M | 0.29 | 0.449 | 0.553 | 0.49 | 0.567 | 0.628 | 0.524 | 0.678 | 0.439 | 0.525 | 1.16 | 1.25 | 1.17 | 1.15 | 1.14 | 0.826 | 0.764 | 0.632 | 0.62 | 0.716 |
| NCI-H1734 | 0.461 | 0.457 | 0.489 | 0.475 | 0.376 | 0.544 | 0.543 | 0.477 | 0.209 | 0.552 | 0.826 | 0.817 | 0.933 | 0.813 | 0.656 | 0.695 | 0.7 | 0.574 | 0.592 | 0.443 |
| EKVX | 0.408 | 0.441 | 0.418 | 0.432 | 0.269 | 0.706 | 0.698 | 0.596 | 0.558 | 0.64 | 0.913 | 0.904 | 0.961 | 0.928 | 0.627 | 0.835 | 0.896 | 0.728 | 0.625 | 0.53 |
| NCI-H596 | 0.399 | 0.348 | 0.436 | 0.348 | 0.344 | 1.02 | 1.11 | 1.24 | 0.853 | 0.912 | 0.98 | 0.811 | 0.828 | 0.898 | 0.419 | 0.597 | 0.397 | 0.483 | 0.467 | 0.364 |
| NCI-H1975 | – | 0.3 | 0.299 | 0.271 | 0.221 | 0.75 | 0.724 | 0.661 | 0.743 | 0.646 | – | 1.19 | 1.1 | 1.1 | 0.731 | 0.681 | 0.609 | 0.552 | 0.613 | 0.4 |
